Reference: article PMC5676038, “MCR-1 Inhibition with Peptide-Conjugated Phosphorodiamidate Morpholino Oligomers Restores Sensitivity to Polymyxin in Escherichia coli” (mBio, 2017)
Positions of bridges follow the written chain, without caps; N, C: chain ends. Non-standard residues stand in square brackets, D forms with d. Residues, ends and D or L forms follow the SMILES beside them. *: point of attachment. X1 = CC[C@H](C)CCCCC(=O)*; Dab = NCC[C@H](N)C(=O)O

What was measured:
E. coli MRSN 388634 [1] = assay: Mouse septicemia model, acute; assay type: in vivo, BALB/c mice
Procedure: FIG 3 PPMOs rescue colistin activity in a mouse model of acute septicemia. Female BALB/c mice (7 to 8 weeks old) were infected via intraperitoneal injection with 8e4 CFU of MRSN 388634. At 2 and 6 h postinfection, 0.25 mg/kg colistin sulfate, 100 μg PPMO (~5 mg/kg), or the combination was administered via the i.p. route. Mice were euthanized at 24 h, and organ burden was determined. Numbers of CFU per gram of tissue of the liver (A) and spleen (B) are shown. (C) Morbidity was assessed immediately prior to euthanasia and scored as a maxima of 6 (moribund) and a nadir of 0. Mice that succumbed prior to euthanasia are depicted with the maxima score of 6. The data represent the means and standard errors of the means (SEM) of results from two replicate experiments (n = 4) (n = 8 per group total). n.s., not significant; *, P < 0.05; **, P < 0.01; ***, P < 0.001; ****, P < 0.0001 by Student’s t test, with the Mann-Whitney test used for morbidity.
Animal experiments were approved by the […] at UT Southwestern Medical Center (protocol number 2016-101626). The mouse model of septicemia with PPMO rescue of antibiotic activity was described previously ([10]).
(§1) Briefly, 7- to 8-week-old female BALB/c mice (Jackson Laboratory, Sacramento, CA, USA) were infected intraperitoneally (i.p.) with 8 × 10^4 CFU of E. coli (MRSN 388634) in DPBS with 5% mucin (M1778; Sigma-Aldrich). At 2 and 6 h postinfection, 0.25 mg/kg colistin sulfate, 100 µg PPMO, or the combination was administered i.p. in 100 µl DPBS. Morbidity was assessed at 24 h, immediately prior to euthanasia. Mice were scored from 0 to 6 as follows: 0 for the absence or 1 for the presence of a ruffled coat; 0 for a normal posture, 1 for a hunched posture, and 2 for a prostrate posture; and 0 for nondisturbed movement, 1 for slow movement, 2 for movement after prodding, and 3 for no movement. Mice that succumbed to infection prior to euthanasia were scored as the maxima, 6 (moribund). Spleen and liver were harvested and homogenized in 1 ml DPBS (Omni TH; Omni International, Kennesaw, GA), serially diluted, and plated on blood agar.

E. coli MRSN 388634 [2] = assay: Mouse septicemia model, survival; assay type: in vivo, BALB/c mice
Procedure: FIG 4 PPMOs combined with colistin protect mice from a lethal dose of mcr-1-positive E. coli. Female BALB/c mice (7 to 8 weeks old) were infected via intraperitoneal injection with 1e6 CFU of MRSN 388634. At 2 and 6 h postinfection 0.5 mg/kg colistin sulfate, 100 μg PPMO (~5 mg/kg), or the combination was administered via the i.p. route. Mice were monitored for morbidity, with an assessment scored at a maxima of 6 (moribund; dotted line [b]) and a nadir of 0. The data represent the means and SEM from two replicate experiments (n = 4) (n = 8 per group total). (A to C) Survival curve (A), morbidity scoring (B), and weight loss measurement (C) over the course of 5 days. ****, P < 0.0001 by the Mantel-Cox log-rank test.
as §1
Mice were infected and treated as described above except that the inoculum was increased to 1 × 10^6 CFU and the colistin dose was increased to 0.5 mg/kg. Mice were weighed, and morbidity was assessed every 6 h for the first 36 h and then every 12 h out to 120 h (5 days). Mice that reached the moribund state were euthanized.

Compound | burden in the liver and morbidity at 24 h, colistin alone (E. coli MRSN 388634 [1]; BALB/c, 8 × 10^4 CFU i.p., colistin sulfate 0.25 mg/kg i.p. at 2 and 6 h, n = 8) | effect on burden or morbidity at 24 h, PPMO alone (E. coli MRSN 388634 [1]; BALB/c, 8 × 10^4 CFU i.p., PPMO 100 μg (~5 mg/kg) i.p. at 2 and 6 h postinfection, n = 8) | decrease in the number of CFU, combination with colistin (E. coli MRSN 388634 [1]; PPMO ~5 mg/kg + colistin sulfate 0.25 mg/kg i.p. at 2 and 6 h, 24 h) | liver burden and morbidity, combination with colistin, compared to Ctrl PPMO and colistin (E. coli MRSN 388634 [1]; PPMO ~5 mg/kg + colistin sulfate 0.25 mg/kg i.p. at 2 and 6 h, 24 h, n = 8) | numbers of CFU in liver and spleen at 24 h, combination with colistin, compared to DPBS control (E. coli MRSN 388634 [1]; PPMO ~5 mg/kg + colistin sulfate 0.25 mg/kg i.p. at 2 and 6 h, n = 8) | survival to the 5-day endpoint, combination with colistin (E. coli MRSN 388634 [2]; BALB/c, 1 × 10^6 CFU i.p., PPMO 100 μg (~5 mg/kg) + colistin sulfate 0.5 mg/kg i.p. at 2 and 6 h, n = 6/8) | body weight course, combination with colistin (E. coli MRSN 388634 [2]; PPMO ~5 mg/kg + colistin sulfate 0.5 mg/kg, over 5 days) | morbidity course, combination with colistin (E. coli MRSN 388634 [2]; PPMO ~5 mg/kg + colistin sulfate 0.5 mg/kg, score 0 to 6)
CC[C@H](C)CCCCC(=O)N[C@@H](CCN)C(=O)N[C@H](C(=O)N[C@@H](CCN)C(=O)N[C@H]1CCNC(=O)[C@H]([C@@H](C)O)NC(=O)[C@H](CCN)NC(=O)[C@H](CCN)NC(=O)[C@H](CC(C)C)NC(=O)[C@@H](CC(C)C)NC(=O)[C@H](CCN)NC1=O)[C@@H](C)O [Colistin, colistin, reference compound] (X1-[Dab]T[Dab][Dab][Dab][dL]L[Dab][Dab]T; lactam 4-C (inferred); N-terminus assumed) | significant reduction |  |  |  |  |  |  | 
TCAAAGAGTAC [Mcr1-0545, (RXR)4XB 3′-end-conjugated PPMO targeted to mcr-1 mRNA, positions −8 to +3; theone tested in mice] |  | Neither the MCR-1 nor the Ctrl PPMO alone had an effect | ~ 1 log | significantly less | significant reduction | 75% | continued to lose weight over the course of the experiment | increased initially, but the mice began to recover by 24 h
